Data as given in patent US10519154B2, “7-substituted 1-pyridyl-naphthyridine-3-carboxylic acid amides and use thereof” (Bayer Pharma Aktiengesellschaft, priority 2016, dated 2019).
pEC50: −log10 of the molar value.

Biological target: T1, human M2 receptor (Homo sapiens, UniProt P08172)
T1 sequence (P08172 1-466): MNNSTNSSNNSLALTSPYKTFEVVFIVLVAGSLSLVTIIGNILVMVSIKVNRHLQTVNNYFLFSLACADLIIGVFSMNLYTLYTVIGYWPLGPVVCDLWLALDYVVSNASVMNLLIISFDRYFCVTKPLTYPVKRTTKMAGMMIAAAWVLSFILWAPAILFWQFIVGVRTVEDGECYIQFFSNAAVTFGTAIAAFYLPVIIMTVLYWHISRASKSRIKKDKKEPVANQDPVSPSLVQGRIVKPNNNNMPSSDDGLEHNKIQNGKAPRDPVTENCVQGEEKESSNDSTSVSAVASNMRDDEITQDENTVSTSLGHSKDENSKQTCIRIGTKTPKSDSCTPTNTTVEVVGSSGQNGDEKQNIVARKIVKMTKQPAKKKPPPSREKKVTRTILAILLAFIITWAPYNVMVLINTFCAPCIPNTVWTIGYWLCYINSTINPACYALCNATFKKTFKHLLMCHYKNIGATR
Assay: Functional M2-GIRK1/4 activation test: allosteric potency (EC50) and efficiency
Conditions: for pEC50: Receptor activity EC50, CHO-DUKX-M2-GIRK cells, acetylcholine at EC20, in some cases mean of two or more determinations; for Efficiency: boosting of the acetylcholine effect at EC20 acetylcholine concentration; for Efficiency / Emax: CHO-DUKX-M2-GIRK cells; for Emax: read-out: Efficiency, boosting of the acetylcholine effect at EC20 acetylcholine concentration

SMILES	pEC50	Efficiency	Emax
O=C(NC(C(F)(F)F)C(F)(F)F)c1cn(-c2ncc(F)cc2F)c2nc(N3CC4CC4(O)C3)ccc2c1=O (single isomer, unassigned) [Example 59, 1-(3,5-Difluoropyridin-2-yl)-N-(1,1,1,3,3,3-hexafluoropropan-2-yl)-7-[1-hydroxy-3-azabicyclo[3.1.0]hex-3-yl]-4-oxo-1,4-dihydro-1,8-naphthyridine-3-carboxamide]	7.64	99.00%	
O=C(N[C@H](C1CC1)C(F)(F)F)c1cn(-c2ncccc2Cl)c2nc(N3CC4CC4(O)C3)ccc2c1=O (mixture of isomers) [Example 54, 1-(3-Chloropyridin-2-yl)-N-[(1R)-1-cyclopropyl-2,2,2-trifluoroethyl]-7-[1-hydroxy-3-azabicyclo[3.1.0]hex-3-yl]-4-oxo-1,4-dihydro-1,8-naphthyridine-3-carboxamide]	6.46		94.7%
O=C(N[C@H](C1CC1)C(F)(F)F)c1cn(-c2ncccc2Cl)c2nc(N3C[C@@H](O)CC3=O)ccc2c1=O [Example 22, 1-(3-Chloropyridin-2-yl)-N-[(1R)-1-cyclopropyl-2,2,2-trifluoroethyl]-7-[(4S)-4-hydroxy-2-oxopyrrolidin-1-yl]-4-oxo-1,4-dihydro-1,8-naphthyridine-3-carboxamide]	6.24		85%
CC1CC(=O)N(c2ccc3c(=O)c(C(=O)N[C@H](C4CC4)C(F)(F)F)cn(-c4ncc(F)cc4F)c3n2)C1 (single isomer, unassigned) [Example 29]	7.23	98.00%	
O=C(N[C@H](C1CC1)C(F)(F)F)c1cn(-c2ncc(F)cc2F)c2nc(N3CC4CC4(O)C3)ccc2c1=O (single isomer, unassigned) [Example 38]	7.74		98%
CC[C@@H](NC(=O)c1cn(-c2ncc(F)cc2F)c2nc(N3CCOCC3)ccc2c1=O)C(F)(F)F [Example 71, 1-(3,5-Difluoropyridin-2-yl)-7-(morpholin-4-yl)-4-oxo-N-[(2R)-1,1,1-trifluorobutan-2-yl]-1,4-dihydro-1,8-naphthyridine-3-carbonxamide]	6.44		97.5%
O=C(NC(c1ccccc1Cl)C(F)(F)F)c1cn(-c2ncc(F)cc2F)c2nc(N3C[C@@H](O)CC3=O)ccc2c1=O (single isomer, unassigned) [Example 6]	7.85		95%
O=C(NC(c1ccc(F)cc1)C(F)(F)F)c1cn(-c2ncc(F)cc2F)c2nc(N3C[C@@H](O)CC3=O)ccc2c1=O (mixture of isomers) [Example 11, 1-(3,5-Difluoropyridin-2-yl)-7-[(4S)-4-hydroxy-2-oxopyrrolidin-1-yl]-4-oxo-N-[2,2,2-trifluoro-1-(4-fluorophenyl)ethyl]-1,4-dihydro-1,8-naphthyridine-3-carboxamide]	7.43		99.5%
O=C(N[C@H](C1CC1)C(F)(F)F)c1cn(-c2ncc(F)cc2Cl)c2nc(N3CC4CC4(O)C3)ccc2c1=O (mixture of isomers) [Example 52, 1-(3-Chloro-5-fluoropyridin-2-yl)-N-[(1R)-1-cyclopropyl-2,2,2-trifluoroethyl]-7-[1-hydroxy-3-azabicyclo[3.1.0]hex-3-yl]-4-oxo-1,4-dihydro-1,8-naphthyridine-3-carboxamide]	7.32		90.5%
CC1(C)C(=O)N(c2ccc3c(=O)c(C(=O)N[C@@H](C4CC4)C(F)(F)F)cn(-c4ncc(F)cc4F)c3n2)C2(CC2)C1O (stereo partly drawn) [Example 33, N-[(1S)-1-Cyclopropyl-2,2,2-trifluoroethyl]-1-(3,5-difluoropyridin-2-yl)-7-[7-hydroxy-6,6-dimethyl-5-oxo-4-azaspiro[2.4]hept-4-yl]-4-oxo-1,4-dihydro-1,8-naphthyridine-3-carboxamide]	6.30		83%
CC[C@@H](NC(=O)c1cn(-c2ncc(F)cc2F)c2nc(N3CC4CC4(O)C3)ccc2c1=O)C(F)(F)F (single isomer, unassigned) [Example 45]	7.24	96.00%	

Continued, values first:

pEC50	Efficiency	Emax	SMILES
6.50		92%	CC[C@H](NC(=O)c1cn(-c2ncc(F)cc2F)c2nc(N3CC(O)C3)ccc2c1=O)C(F)(F)F [Example 133, 1-(3,5-Difluoropyridin-2-yl)-7-(3-hydroxyazetidin-1-yl)-4-oxo-N-[(2S)-1,1,1-trifluorobutan-2-yl]-1,4-dihydro-1,8-naphthyridine-3-carboxamide]
6.66		100%	CC(NC(=O)c1cn(-c2ncc(F)cc2F)c2nc(N3CC4(COC4)C3)ccc2c1=O)C(F)(F)C(F)(F)F (single isomer, unassigned) [Example 181, 1-(3,5-Difluoropyridin-2-yl)-7-(2-oxa-6-azaspiro[3.3]hept-6-yl)-4-oxo-N-[3,3,4,4,4-pentafluorobutan-2-yl]-1,4-dihydro-1,8-naphthyridine-3-carboxamide]
7.01	98.00%		CC1C(=O)N(c2ccc3c(=O)c(C(=O)N[C@@H](C4CC4)C(F)(F)F)cn(-c4ncc(F)cc4F)c3n2)CC1O (single isomer, unassigned) [Example 107]
7.17		100%	CCC(NC(=O)c1cn(-c2ncc(F)cc2F)c2nc(N3C[C@@H](O)[C@H](O)C3)ccc2c1=O)C(F)(F)C(F)(F)F (single isomer, unassigned) [Example 96]
7.42		100%	CC(NC(=O)c1cn(-c2ncc(F)cc2F)c2nc(N3CCC(O)(CO)CC3)ccc2c1=O)C(F)(F)C(F)(F)F (single isomer, unassigned) [Example 177, 1-(3,5-Difluoropyridin-2-yl)-7-[4-hydroxy-4-(hydroxymethyl)piperidin-1-yl]-4-oxo-N-(3,3,4,4,4-pentafluorobutan-2-yl)-1,4-dihydro-1,8-naphthyridine-3-carboxamide]
7.52	81.00%		CCC(NC(=O)c1cn(-c2ncc(F)cc2F)c2nc(N3CCNC3=O)ccc2c1=O)C(F)(F)C(F)(F)F (single isomer, unassigned) [Example 166, 1-(3,5-Difluoropyridin-2-yl)-4-oxo-7-(2-oxoimidazolidin-1-yl)-N-[1,1,1,2,2-pentafluoropentan-3-yl]-1,4-dihydro-1,8-naphthyridine-3-carboxamide]
7.33		94.5%	C[C@@H]1CN(c2ccc3c(=O)c(C(=O)N[C@@H](C4CC4)C(F)(F)F)cn(-c4ncc(F)cc4F)c3n2)C(=O)N1 [Example 142, N-[(1S)-1-cyclopropyl-2,2,2-trifluoroethyl]-1-(3,5-difluoropyridin-2-yl)-7-[(4R)-4-methyl-2-oxoimidazolidin-1-yl]-4-oxo-1,4-dihydro-1,8-naphthyridine-3-carboxamide]
6.93		100%	CC(C)(NC(=O)c1cn(-c2ncc(F)cc2F)c2nc(N3CCC[C@@H]3CO)ccc2c1=O)C(F)(F)C(F)(F)F [Example 188, 1-(3,5-Difluoropyridin-2-yl)-7-[(2R)-2-(hydroxymethyl)pyrrolidin-1-yl]-4-oxo-N-(3,3,4,4,4-pentafluoro-2-methylbutan-2-yl)-1,4-dihydro-1,8-naphthyridine-3-carboxamide]
7.28		93%	CC[C@H](NC(=O)c1cn(-c2ncc(F)cc2F)c2nc(N(C)C)ccc2c1=O)C(F)(F)F [Example 130, 1-(3,5-Difluoropyridin-2-yl)-7-(dimethylamino)-4-oxo-N-[(2S)-1,1,1-trifluorobutan-2-yl]-1,4-dihydro-1,8-naphthyridine-3-carboxamide]
7.59		100%	CCC(NC(=O)c1cn(-c2ncc(F)cc2F)c2nc(N3C[C@@H](O)[C@H](O)C3)ccc2c1=O)C(F)(F)C(F)(F)F (mixture of isomers) [Example 95, 1-(3,5-Difluoropyridin-2-yl)-7-[(3R,4R)-3,4-dihydroxypyrrolidin-1-yl]-4-oxo-N-[1,1,1,2,2-pentafluoropentan-3-yl]-1,4-dihydro-1,8-naphthyridine-3-carboxamide]
7.77		100%	O=C(NC(c1ccccc1Cl)C(F)(F)F)c1cn(-c2ncc(F)cc2F)c2nc(N3C[C@@H](O)[C@H](O)C3)ccc2c1=O (mixture of isomers) [Example 83, N-[1-(2-Chlorophenyl)-2,2,2-trifluoroethyl]-1-(3,5-difluoropyridin-2-yl)-7-[(3R,4R)-3,4-dihydroxypyrrolidin-1-yl]-4-oxo-1,4-dihydro-1,8-naphthyridine-3-carboxamide]
7.20		100%	O=C(NC1(C(F)(F)F)CCCC1)c1cn(-c2ncc(F)cc2F)c2nc(N3C[C@@H](O)[C@H](O)C3)ccc2c1=O [Example 87, 1-(3,5-Difluoropyridin-2-yl)-7-[(3R,4R)-3,4-dihydroxypyrrolidin-1-yl]-4-oxo-N-[1-(trifluoromethyl)cyclopentyl]-1,4-dihydro-1,8-naphthyridine-3-carboxamide]
7.68		96.5%	CC[C@H](NC(=O)c1cn(-c2ncc(F)cc2F)c2nc(N3CC[C@H](F)C3)ccc2c1=O)C(F)(F)F [Example 129, 1-(3,5-Difluoropyridin-2-yl)-7-[(3S)-3-fluoropyrrolidin-1-yl]-4-oxo-N-[(2S)-1,1,1-trifluorobutan-2-yl]-1,4-dihydro-1,8-naphthyridine-3-carboxamide]
